Each structure is given as a SMILES string.

The subject of assay [1] is male mice. Nature of the assay: Electroejaculation test after oral administration of diarylmethylpiperazine compounds (35 Hz, 3 to 8 volts). To be noted: for Effective Dose: oral administration, stimulation about 20 minutes after dosing, 3 to 8 volts in 0.5 volt increments; for Ejaculation Inhibition %: relative to control group, at the effective dose of the same line, oral, about 20 minutes after dosing, 3 to 8 volts. In kind it is in vivo, mouse. Here is the method: (§1) Male, CD-1 mice (20-30 g) were housed in groups of ten (10) in Plexiglas® chambers with food and water available before any procedure. Animals were maintained on a 12 hour light/dark cycle in a temperature-controlled animal colony. Studies were carried out in accordance with the Guide for the Care and Use of Laboratory animals as adopted and promulgated by the National Institutes of Health.
(§2) Specifically, the bipolar electrode probe is an approximately 5 cm long tube having an outer diameter of approximately 0.2388 cm with an inner diameter of approximately 0.0787 cm and a wall thickness of […].
A testing mouse was restrained in a cone bag with rear legs extending from the bag. Excess fecal matter was removed from the rectum and a lubricated bipolar electrode was inserted approximately […] into the rectum. An oscillating current of 40 Hz was utilized for electrical stimulation starting at 3 volts with a gradual increase to 8 volts by increments of 0.5 volts, as shown in Table 1. The stimulation regime included 4 stimulating events for each voltage lasting 2 seconds with a rest period of 2 seconds between stimulating events. A white coagulum ejaculate from the penis indicated a successful ejaculation. If ejaculation occurred before reaching the 8 volt terminal voltage, the testing was stopped.
Further testing was conducted on a multiple diarylmethylpiperazine compounds according to the testing procedure setforth above wherein the stimulating protocol comprised multiple operating cycles of alternating stimulation periods and rest periods during which the operating voltage of each operating cycle increased in comparison with that of the immediately preceding operating cycle. Electroejaculation stimulation was conducted at 35 Hz oscillating frequency, starting at 3 volts with a gradual increase to 8 volts by increments of 0.5 volts and occurred about 20 minutes after oral administration. The results, showing ejaculation inhibition relative to that of the control group, are compiled in Table 2.

Assay [2] relates to male mice. Nature of the assay: Electroejaculation test after subcutaneous SNC-80 (40 Hz, 3 to 8 volts). In kind it is in vivo, mouse. Conditions: terminal voltage 8 volts, FIG. 3. Here is the method: as §1, §2
SNC-80 was dissolved in 5% dextrose injection solution. Equal molar of HCL was added when the manufacturer packaged the compound in a base form. The placebo was prepared in a similar manner without the test drug 10 minutes after the injection, the test mouse was subjected to electrostimulation. Ten mice were tested for each dose level, the order of each mouse receiving different doses was blinded and in a random manner.
A testing mouse was restrained in a cone bag with rear legs extending from the bag. Excess fecal matter was removed from the rectum and a lubricated bipolar electrode was inserted approximately 2.5 into the rectum. […]

For assay [3], the system named is mouse vas deferens smooth muscle. Conditions: in vitro; cited from earlier work.
The target in the next assay is delta opioid receptor (Homo sapiens, UniProt P41143). Conditions: delta opioid receptor agonist versus mu opioid receptors; cited from earlier work.
Sequence of delta opioid receptor (P41143 whole entry): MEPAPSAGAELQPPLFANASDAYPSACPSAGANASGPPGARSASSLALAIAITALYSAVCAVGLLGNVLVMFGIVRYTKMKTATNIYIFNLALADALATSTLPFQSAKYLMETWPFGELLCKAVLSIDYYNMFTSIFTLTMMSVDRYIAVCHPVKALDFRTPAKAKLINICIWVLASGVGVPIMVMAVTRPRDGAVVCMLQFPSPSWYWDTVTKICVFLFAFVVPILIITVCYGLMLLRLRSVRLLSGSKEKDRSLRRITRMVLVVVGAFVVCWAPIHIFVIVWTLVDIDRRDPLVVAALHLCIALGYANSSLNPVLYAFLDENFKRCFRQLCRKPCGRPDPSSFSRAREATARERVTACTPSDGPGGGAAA

Regarding `C=CCN1C[C@H](C)N([C@H](c2ccc(C(=O)N(CC)CC)cc2)c2cccc(OCC(=O)O)c2)C[C@H]1C` [3-((alpha-R)-alpha-((2S,5R)-4-Allyl-2,5-dimethyl-1-piperazinyl)-4-(diethylamino-carbonyl)benzyl)phenoxyacetic acid], in the assay on male mice [1], the “Effective Dose” value is 0.01 mg/kg and the “Ejaculation Inhibition %” value was found to be 45%.
For `CCN(CC)C(=O)c1ccc([C@H](c2cccc(OCC(=O)O)c2)N2C[C@@H](C)N(Cc3ccccc3)C[C@@H]2C)cc1` [3-((alpha-R)-alpha-((2S,5R)-4-Benzyl-2,5-dimethyl-1-piperazinyl)-4-(diethylaminocarbonyl)benzyl)phenoxyacetic acid], in that order: 3 mg/kg and 66%.
The corresponding values for `CCN(CC)C(=O)c1ccc([C@@H](c2ccccc2)N2C[C@H](C)N(Cc3cccc(F)c3)C[C@H]2C)cc1` [4-((alpha-R)-alpha-((2R,5 S)-2,5-Dimethyl-4-(3-fluorobenzyl)-1-piperazinyl)benzyl)-N,N-diethylbenzamide] are 0.4 mg/kg and 75%.
On to `CCN(CC)C(=O)c1ccc([C@H](c2cccc(OC)c2)N2C[C@@H](C)N(Cc3ccccc3F)C[C@@H]2C)cc1` [4-((alpha-R)-alpha-((2S,5R)-2,5-Dimethyl-4-(2-fluorobenzyl)-1-piperazinyl)-3-methoxybenzyl)-N,N-diethylbenzamide], for which, in the assay on male mice [1], the “Effective Dose” value amounted to 10 mg/kg and the “Ejaculation Inhibition %” value is recorded as 50%.
The corresponding values for `CCN(CC)C(=O)c1ccc([C@H](c2cccc(O)c2)N2C[C@@H](C)N(Cc3cccc(F)c3)C[C@@H]2C)cc1` [4-((alpha-R)-alpha-((2S,5R)-2,5-Dimethyl-4-(3-fluorobenzyl)-1-piperazinyl)-3-hydroxybenzyl)-N,N-diethylbenzamide] are 3 mg/kg and 60%.
On to `CCN(CC)C(=O)c1ccc([C@H](c2cccc(OC)c2)N2C[C@@H](C)N(Cc3ccc(F)cc3)C[C@@H]2C)cc1` [4-((alpha-R)-alpha-((2S,5R)-2,5-Dimethyl-4-(4-fluorobenzyl)-1-piperazinyl)-3-methoxybenzyl)-N,N-diethylbenzamide], for which, in the assay on male mice [1], the “Effective Dose” value amounted to 3 mg/kg and the “Ejaculation Inhibition %” value amounted to 38%.
The corresponding values for `CCN(CC)C(=O)c1ccc([C@H](c2ccccc2)N2C[C@@H](C)N(Cc3ccc(O)cc3)C[C@@H]2C)cc1` [4-((alpha-S)-alpha-((2S,5R)-2,5-Dimethyl-4-(4-hydroxybenzyl)-1-piperazinyl)-benzyl)-N,N-diethylbenzamide] are 3 mg/kg and 50%.
The corresponding values for `CCN(CC)C(=O)c1ccc([C@H](c2cccc(O)c2)N2C[C@@H](C)N(CC3CC3)C[C@@H]2C)cc1` [4-(alpha-R)-alpha-((2S,5R)-4-(Cyclopropylmethyl)-2,5-dimethyl-1-piperazinyl)-3-hydroxybenzyl)-N,N-diethylbenzamide] are 0.3 mg/kg and 60%.
The corresponding values for `CCN(CC)C(=O)c1ccc([C@H](c2cccc(OC)c2)N2C[C@@H](C)N(Cc3ccccc3)C[C@@H]2C)cc1` [4-(alpha-R)-alpha-((2S,5R)-4-Benzyl-2,5-dimethyl-1 piperazinyl)-3-methoxybenzyl)-N,N-diethylbenzamide] are 3 mg/kg and 33%.
Consider `C=CCN1C[C@@H](C)N([C@H](c2ccc(S(=O)(=O)N(C)C)cc2)c2cccc(O)c2)C[C@@H]1C` [4-[(R)-((2R,5S)-4-Allyl-2,5-diimethylpiperazin-1-yl)(3-hydroxyphenyl)methyl]-N,N-dimethylbenzenesulfonamide], for which, in the assay with male mice [1], the “Effective Dose” value was 0.3 mg/kg and the “Ejaculation Inhibition %” value is 50%.
For the molecule `C=CCN1C[C@H](C)N([C@H](c2ccc(C(=O)N(CC)CC)cc2)c2cccc(OC)c2)C[C@H]1C` [SNC-80, (+)-4-[(αR)-α-((2S,5R)-4-Allyl-2,5-dimethyl-1-piperazinyl)-3-methoxybenzyl]-N,N-diethyl benzamide], in the assay with male mice [2] (0.1 mg/kg subcutaneous), the “inhibitory effect on ejaculation at reduced dose” value is given as “inhibitory effect diminished”. The “occurrence of ejaculation compared to control group” value with male mice [2] (1 mg/kg subcutaneous) is listed as “significantly reduced the occurrence of ejaculation”. The “contraction of mouse vas deferens smooth muscle” value in assay [3] is listed as “block the contraction”. The “selectivity over mu opioid receptors” value on delta opioid receptor is recorded as 2000 fold.

These data come from patent US20030130698A1, “Method for screening therapeutic agents for modulation of ejaculatory response” (priority 2002, published 2003).
